Reference: patent publication US4250176A, “Piperazine derivatives” (priority 1979, dated 1981)
Converted amounts (≈) assume the structure as drawn. Counter-ions that a name gives are not always drawn. Like-named read-outs stand apart in the source and are kept apart here.

Key:
[1] = tested on: Guinea-pig ileum strips, histamine-induced contraction; experiment: Anti-histamine activity in "vitro": histamine-induced spasms of guinea-pig ileum strips; type: cell-based; settings: Cavia porcellus, 5 min, histamine 0.5 mg/liter, 5 minutes incubation, concentration giving significant inhibition (50%) of the contraction
Description: The histamine--(0.5 mg/liter) induced spasms are recorded Kymographically with an isotonic lever giving a 5-fold magnification.

[2] = tested on: Guinea pigs sensitized to ovalbumin (anaphylactic shock); experiment: Anaphylaxis in guinea pigs: protection against death after ovalbumin challenge (survival); type: in vivo, guinea pig; settings: Cavia porcellus, estimated ED50, oral, protection against death after i.v. 0.6 mg ovalbumin, read-out: Anaphylaxis in guinea pigs oral effective dose in mg/kg: Survival
Description: The anti-anaphylactic and antihistaminic effects of the subject compounds (I) and salts thereof are studied "in vivo" in guinea pigs.
(§1) Guinea pigs, weighing between 400 and 500 g, are sensitized to ovalbumin by subplantar (s.p.) injection of 0.05 ml of antiserum in the left hind paw. The animals are then starved and orally treated, 24 hours after the sensitization, with saline (=control animals) or a particular dose of the compound under investigation.
The histamine injection (at a dose of 50 μg) was given s.p. in the right hind paw 2 hours after the oral pretreatment with the compound. The diameters of both hind paws are first measured before the histamine injection is given and again 10 minutes thereafter. The animals are challenged intravenously with 0.6 mg of ovalbumin 30 minutes after the histamine injection. All control animals develop typical primary anaphylactic shock symptoms (coughing, difficult breathing, convulsions) and 85% of these control animals die within 15 minutes after the ovalbumin injection. Protection against death is used as the criterion for possible drug effects and the estimated ED50 -value, i.e. the oral dose whereby the protection is observed in 50% of the guinea pigs, is listed in the tables below.

[3] = tested on: histamine paw oedema in guinea pigs; experiment: Histamine paw oedema in guinea pigs; type: in vivo, guinea pig; settings: Cavia porcellus, oral dose giving paw reaction below 10 units 10 minutes after 50 μg histamine s.p., 2 hours after dosing, read-out: Anaphylaxis in guinea pigs oral effective dose in mg/kg: Histamine oedema
Description: as §1, with “investigation. The histamine injection (at a dose of 50 μg) was given s.p. in the right hind paw 2 hours after the oral pretreatment with the compound.” for “investigation.”

[4] = Table I-a, read-out: Histamine in "vitro" (ileum) effective conc.
[5] = Table I-b, read-out: Histamine in "vitro" (ileum) effective conc.

Row | SMILES | IC50 [1, 4] | ED50 ([2]; Table I-a) | minimal effective dose ([3]; Table I-a) | IC50 [1, 5] | ED50 ([2]; Table I-b) | minimal effective dose ([3]; Table I-b) | other results
1 | Cn1c(=O)n(CCCN2CCN(C(c3ccccc3)c3ccccc3)CC2)c2ccccc21 [1-{3-[4-(diphenylmethyl)-1-piperazinyl]propyl}-1,3-dihydro-3-methyl-2H-benzimidazol-2-one dihydrochloride. hydrate] | 0.01 µg/mL | 1.25 mg/kg | 2.5 mg/kg | – | – | – | –
2 | O=c1[nH]c2cc(C(F)(F)F)ccc2n1CCCN1CCN(C(c2ccccc2)c2ccccc2)CC1 [1-{3-[4-(diphenylmethyl)-1-piperazinyl]propyl}-1,3-dihydro-5-(trifluoromethyl)-2H-benzimidazol-2-one] | 0.02 µg/mL (≈ 0.0404 µM) | 0.31 mg/kg | 0.31 mg/kg | – | – | – | –
3 | Cc1ccc2c(c1)[nH]c(=O)n2CCCN1CCN(C(c2ccccc2)c2ccccc2)CC1 [1-{3-[4-(diphenylmethyl)-1-piperazinyl]propyl}-1,3-dihydro-5-methyl-2H-benzimidazol-2-one] | 0.01 µg/mL (≈ 0.0227 µM) | 0.08 mg/kg | 0.16 mg/kg | – | – | – | –
4 | Cc1ccc2[nH]c(=O)n(CCCN3CCN(C(c4ccccc4)c4ccccc4)CC3)c2c1 [1-{3-[4-(diphenylmethyl)-1-piperazinyl]propyl}-1,3-dihydro-6-methyl-2H-benzimidazol-2-one] | 0.01 µg/mL (≈ 0.0227 µM) | 0.16 mg/kg | 0.31 mg/kg | – | – | – | –
5 | O=c1[nH]c2ccccc2n1CCCCN1CCC(OC(c2ccccc2)c2ccccc2)CC1 [1-{4-[4-(diphenylmethoxy)-1-piperidinyl]butyl}-1,3-dihydro-2H-benzimidazol-2-one] | – | – | – | – | – | – | IC50 ([1]; Table I-d, read-out: Histamine in "vitro" (ileum) effective dose): 0.005 µg/mL (≈ 0.011 µM); ED50 ([2]; Table I-d): 0.63 mg/kg; minimal effective dose ([3]; Table I-d): 0.31 mg/kg
6 | c1ccc(C(c2ccccc2)N2CCN(CCCn3c(C4CCCCC4)nc4ccccc43)CC2)cc1 [2-cyclohexyl-1-{3-[4-(diphenylmethyl)-1-piperazinyl]propyl}-1H-benzimidazole] | – | – | – | ≥ 0.16 µg/mL | 2.5 mg/kg | 2.5 mg/kg | –
7 | O=C(O)Cn1c(=O)n(CCCN2CCN(C(c3ccccc3)c3ccccc3)CC2)c2ccccc21 [3-{3-[4-(diphenylmethyl)-1-piperazinyl]-propyl}-2,3-dihydro-2-oxo-1H-benzimidazole-1-acetic acid hemihydrate] | 0.08 µg/mL | < 2.5 mg/kg | < 2.5 mg/kg | – | – | – | –
8 | O=c1[nH]c2cc(Cl)c(Cl)cc2n1CCCN1CCN(C(c2ccccc2)c2ccccc2)CC1 [5,6-dichloro-1-{3-[4-(diphenylmethyl)-1-piperazinyl]propyl}-1,3-dihydro-2H-benzimidazol-2one] | ≥ 0.16 µg/mL | 2.5 mg/kg | 2.5 mg/kg | – | – | – | –
9 | O=c1[nH]c2cc(Cl)ccc2n1CCN1CCN(C(c2ccccc2)c2ccccc2)CC1 [5-chloro-1-{2-[4-(diphenylmethyl)-1-piperazinyl]ethyl}-1,3-dihydro-2H-benzimidazol-2-one] | 0.01 µg/mL (≈ 0.0224 µM) | 0.63 mg/kg | 1.25 mg/kg | – | – | – | –
10 | O=c1[nH]c2cc(Cl)ccc2n1CCCN1CCN(C(c2ccccc2)c2ccccc2)CC1 [5-chloro-1-{3-[4-(diphenylmethyl)-1-piperazinyl]propyl}-1,3-dihydro-2H-benzimidazol-2-one] | 0.01 µg/mL (≈ 0.0217 µM) | 0.63 mg/kg | 1.25 mg/kg | – | – | – | –
11 | O=c1[nH]c2ccc(Cl)cc2n1CCN1CCN(C(c2ccccc2)c2ccccc2)CC1 [6-chloro-1-{2-[4-(diphenylmethyl)-1-piperazinyl]ethyl}-1,3-dihydro-2H-benzimidazol-2-one] | 0.02 µg/mL (≈ 0.0447 µM) | 2.5 mg/kg | 2.5 mg/kg | – | – | – | –
12 | O=c1[nH]c2ccc(Cl)cc2n1CCCN1CCN(C(c2ccccc2)c2ccccc2)CC1 [6-chloro-1-{3-[4-(diphenylmethyl)-1-piperazinyl]propyl}-1,3-dihydro-2H-benzimidazol-2-one] | 0.04 µg/mL (≈ 0.0868 µM) | 0.63 mg/kg | 0.63 mg/kg | – | – | – | –
13 | O=c1[nH]c2ccccc2n1CCN1CCN(C(c2ccccc2)c2ccccc2)CC1 [I-a: L=H, R1=H, R2=H, (CH2)2, R6=H, R7=H, 1-{2-[4-(diphenylmethyl)-1-piperazinyl]ethyl}-1,3-dihydro-2H-benzimidazol-2-one] | 0.01 µg/mL (≈ 0.0242 µM) | 0.63 mg/kg | 1.25 mg/kg | – | – | – | –
14 | O=c1[nH]c2ccccc2n1CCCN1CCN(C(c2ccccc2)c2ccccc2)CC1 [I-a: L=H, R1=H, R2=H, (CH2)3, R6=H, R7=H, 1-{3-[4-(diphenylmethyl)-1-piperazinyl]propyl}-1,3-dihydro-2H-benzimidazol-2-one] | 0.005 µg/mL (≈ 0.0117 µM) | 0.1 mg/kg | 0.31 mg/kg | – | – | – | –
15 | O=c1[nH]c2ccccc2n1CCCCN1CCN(C(c2ccccc2)c2ccccc2)CC1 [I-a: L=H, R1=H, R2=H, (CH2)4, R6=H, R7=H, 1-{4-[4-(diphenylmethyl)-1piperazinyl]butyl}-1,3-dihydro-2H-benzimidazol-2-one] | 0.01 µg/mL (≈ 0.0227 µM) | 0.16 mg/kg | 0.31 mg/kg | – | – | – | –
16 | O=c1[nH]c2ccccc2n1CCCCCN1CCN(C(c2ccccc2)c2ccccc2)CC1 [I-a: L=H, R1=H, R2=H, (CH2)5, R6=H, R7=H, 1-{5-[4-(diphenylmethyl)-1-piperazinyl]pentyl-1,3-dihydro-2H-benzimidazol-2-one dihydrochloride.hydrate] | 0.01 µg/mL | 0.63 mg/kg | 2.5 mg/kg | – | – | – | –
17 | O=c1[nH]c2ccccc2n1CCCCCCN1CCN(C(c2ccccc2)c2ccccc2)CC1 [I-a: L=H, R1=H, R2=H, (CH2)6, R6=H, R7=H, 1-{6-[4-(diphenylmethyl)-1-piperazinyl]hexyl}-1,3-dihydro-2H-benzimidazol-2-one] | 0.01 µg/mL (≈ 0.0213 µM) | 1.25 mg/kg | 2.5 mg/kg | – | – | – | –
18 | CCc1nc2ccccc2n1CCCN1CCN(C(c2ccccc2)c2ccccc2)CC1 [I-b: M=C2H5, R1=H, (CH2)3, R6=H, R7=H, 1-{3-[4-(diphenylmethyl)-1-piperazinyl]propyl}-2-ethyl-1H-benzimidazole trihydrochloride.hydrate] | – | – | – | 0.01 µg/mL | 2.5 mg/kg | 2.5 mg/kg | –
19 | Cc1nc2ccccc2n1CCCN1CCN(C(c2ccccc2)c2ccccc2)CC1 [I-b: M=CH3, R1=H, (CH2)3, R6=H, R7=H, 1-{3-[4-(diphenylmethyl)-1-piperazinyl]propyl}-2-methyl-1H-benzimidazole] | – | – | – | 0.02 µg/mL (≈ 0.0471 µM) | 2.5 mg/kg | 2.5 mg/kg | –
20 | Cc1nc2ccccc2n1CCCCN1CCN(C(c2ccccc2)c2ccccc2)CC1 [I-b: M=CH3, R1=H, (CH2)4, R6=H, R7=H, 1-{4-[4-(diphenylmethyl)-1-piperazinyl]butyl}-2-methyl-1H-benzimidazole] | – | – | – | 0.005 µg/mL (≈ 0.0114 µM) | 1.25 mg/kg | 1.25 mg/kg | –
21 | CSc1nc2ccccc2n1CCCN1CCN(C(c2ccccc2)c2ccccc2)CC1 [I-b: M=CH3S, R1=H, (CH2)3, R6=H, R7=H, 1-{3-[4-(diphenylmethyl)-1piperazinyl]propyl}-2-(methylthio)-1H-benzimidazole trihydrochloride.hydrate] | – | – | – | 0.16 µg/mL | 1.25 mg/kg | 1.25 mg/kg | –
22 | Nc1nc2ccccc2n1CCCN1CCN(C(c2ccccc2)c2ccccc2)CC1 [I-b: M=H2N, R1=H, (CH2)3, R6=H, R7=H, 1-{3-[4-(diphenylmethyl)-1-piperazinyl]propyl}-1H-benzimidazol-2-amine] | – | – | – | ≤ 0.16 µg/mL | 2.5 mg/kg | 2.5 mg/kg | –
23 | c1ccc(C(c2ccccc2)N2CCN(CCn3cnc4ccccc43)CC2)cc1 [I-b: M=H, R1=H, (CH2)2, R6=H, R7=H, 1-{2-[4-(diphenylmethyl)-1-piperazinyl]ethyl}-1H-benzimidazole] | – | – | – | 0.005 µg/mL (≈ 0.0126 µM) | 1.25 mg/kg | 1.25 mg/kg | –
